Source: patent US12421254B2, “KRAS modulators and uses thereof” (Quanta Therapeutics, Inc., priority 2023, dated 2025)
pIC50: −log10 of the molar value.

How the values were obtained:
[1] = test system: phospho-ERK in SW620 (KRAS-G12V) cells; test: pERK In Cell Western (ICW) assay (Method B), SW620; format: cell-based
How it was run: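 Per well, infrared pERK immunofluorescence was divided by DRAQ5 nuclear signal following 3 h treatment with a 9-point, ½-log compound series; seeding was 5,000 (AGS) or 10,000 (GP2D, SW620) cells per well. Percent-of-blank data were fitted to a four-parameter model for IC50.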

[2] = test system: phospho-ERK in GP2D (KRAS-G12D) cells; test: pERK In Cell Western (ICW) assay (Method B), GP2D; format: cell-based
Procedure: pERK ICW is a high throughput screening assay to evaluate the cellular potency of mutant KRAS small molecule inhibitors. KRAS mutant cell lines AGS, GP2D (KRAS-G12D) as well as SW620 (KRAS-G12V) were purchased from ATCC and maintained respectively in RPMI/DMEM/RPMI medium supplemented with 10% fetal bovine serum.
Cells grown in exponential phase were trypsinized, resuspended in fresh media, and viable cells were counted using a cell counter with Trypan Blue (BioRad TC20). Cells were seeded into 384-well plate (Greiner 781091) at density of 5,000 cells/well for AGS and 10,000 cells/well for GP2D/SW620 and allowed to grow overnight in a 37° C. CO2 incubator. The next day, compounds were dispensed into wells with a ½ log, 9-point serial dilution using a Tecan D300e dispenser and incubated for 3 hours in a 37° C. CO2 incubator. Cells were then fixed with paraformaldehyde (Electron Microscopy Sciences, 15710, 4% final concentration) for 30 min, permeabilized with wash buffer (1×PBS+0.1% Triton X-100) for 30 min and blocked with Odyssey blocking buffer (Li—COR 927-70001) for 1 hour, all at room temperature (RT). Phospho-ERK antibody (CST 4370L) was diluted 1:500 in Odyssey T20 (PBS) antibody diluent (Li—COR 927-75001) and incubated with cells overnight at 4° C. The next day, plates were washed 5× with wash buffer, incubated with IRDye 800 CW, Goat anti-Rabbit secondary antibody (Li—COR 926-32211, 1:800) and DRAQ5 (CST 4084L, 1:5,000) diluted in Odyssey T20 (PBS) antibody diluent for 1 hour, washed 5×, and imaged on an Odyssey CLx imaging system.
For data analysis, signal intensities from 800 (phosphor-ERK) and 700 (DRAQ5) channels were extracted, and phospho-ERK signals were normalized to DRAQ5 signals for each well and percent of blank control values were computed. Data were then imported into Graphpad Prism to compute half-maximal inhibitory concentrations (IC50) using a 4-parameter variable slope model. Z-factor for each plate was computed from signals derived from wells treated with either DMSO or 5 μM of control compound. AGS pERK ICW (Method B) IC50 (uM) values of selected compounds are depicted in Table 2 with compounds having a value ≥0.001 uM to 0.01 uM as ++++; ≥0.01 uM to 0.1 uM as +++; ≥0.1 uM to 1 uM as ++; ≥1 uM to 10 uM as + and ≥10 uM as NA.

[3] = target: GST-tagged KRAS-G12D (2-169) (Homo sapiens, UniProt P01116, G12D); test: Nucleotide exchange assay (NEA), SOS-mediated, HTRF, KRAS G12D; format: biochemical; settings: Table 4; IC50 extracted at 30 min; 20 nM SOScat; read-out: NEA G12D IC50
How it was run: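 SOS1cat-driven loading of fluorescent GTP-DY-647P1 (150 nM) onto GST-KRAS-G12D (2-169, 0.25 nM) read by time-resolved FRET; SOScat 20 nM, compound preincubated with KRAS 1 h at RT. Signal blanked to no-SOS reactions, normalized to DMSO; IC50 fitted from the 30-min read.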

[4] = target: GST-tagged KRAS-G12V (2-169) (Homo sapiens, UniProt P01116, G12V); test: Nucleotide exchange assay (NEA), SOS-mediated, HTRF, KRAS G12V; format: biochemical; settings: Table 4; IC50 extracted at 90 min; 80 nM SOS
How it was run: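 Exchange onto fluorescent GTP-DY-647P1 (150 nM final) catalysed by 80 nM SOS1cat was followed by Tb-anti-GST HTRF at RT for up to 90 min, after 1 h compound pre-incubation with 0.25 nM GST-tagged KRAS-G12V (2-169), pH 7.3. DMSO = 0%, no-SOS blank = 100%; 4-parameter IC50 taken at 90 min.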

[5] = Homo sapiens, SW-620, 3 h, Table 4

Chain of GST-tagged KRAS-G12V (2-169) (P01116 2-169 isoform P01116-2 G12V): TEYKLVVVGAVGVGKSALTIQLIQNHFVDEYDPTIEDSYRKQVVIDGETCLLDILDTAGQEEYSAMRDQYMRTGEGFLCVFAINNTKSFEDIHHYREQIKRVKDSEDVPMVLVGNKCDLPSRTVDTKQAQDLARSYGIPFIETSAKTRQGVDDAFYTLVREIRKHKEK
Chain of GST-tagged KRAS-G12D (2-169) (P01116 2-169 isoform P01116-2 G12D): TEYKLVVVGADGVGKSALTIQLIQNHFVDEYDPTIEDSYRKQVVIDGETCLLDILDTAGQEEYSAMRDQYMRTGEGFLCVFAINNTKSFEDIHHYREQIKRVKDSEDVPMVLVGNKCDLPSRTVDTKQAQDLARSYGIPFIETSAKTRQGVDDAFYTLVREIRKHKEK

SMILES | pIC50 [1, 5] | pIC50 ([2]; GP2d, 3 h, Table 4) | pIC50 [3] | pIC50 [4] | pIC50 ([1]; Table 4, 3 hours) | pIC50 ([2]; Table 4, 3 hours)
CCN(c1nc(OCC(C)N(C)C)nc(N2CC3(C2)SCc2sc(N)c(C#N)c23)n1)[C@H](C)c1cccnc1N (stereo partly drawn) [Compound 177, 2-amino-1′-[4-[[(1R)-1-(2-amino-3-pyridyl)ethyl]-ethyl-amino]-6-[2-(dimethylamino)propoxy]-1,3,5-triazin-2-yl]spiro[6H-thieno[3,4-b]thiophene-4,3′-azetidine]-3-carbonitrile] | 6.00 to 7.00 | 6.00 to 7.00 | 7.00 to 8.00 | > 8.00 | – | –
C[C@@]1(O)C[C@H](O)CN(c2nc(OC[C@@]34CCCN3C[C@H](F)C4)nc(N3CC4(CCc5sc(N)c(C#N)c54)C3)n2)C1 [Compound 67, 2-amino-1′-[4-[(3R,5S)-3,5-dihydroxy-3-methyl-1-piperidyl]-6-[[(2R,8S)-2-fluoro-1,2,3,5,6,7-hexahydropyrrolizin-8-yl]methoxy]-1,3,5-triazin-2-yl]spiro[5,6-dihydrocyclopenta[b]thiophene-4,3′-azetidine]-3-carbonitrile] | ≤ 4.70 | 6.00 to 7.00 | 7.00 to 8.00 | 7.00 to 8.00 | – | –
CC(c1cccnc1N)N(C)c1nc(OC[C@@]23CCCN2C[C@H](F)C3)nc(N2CC3(CCc4sc(N)c(C#N)c43)C2)n1 (single isomer, unassigned) [Compound 100B, 2-amino-1′-[4-[[(1*)-1-(2-amino-3-pyridyl)ethyl]-methyl-amino]-6-[[(2R,8S)-2-fluoro-1,2,3,5,6,7-hexahydropyrrolizin-8-yl]methoxy]-1,3,5-triazin-2-yl]spiro[5,6-dihydrocyclopenta[b]thiophene-4,3′-azetidine]-3-carbonitrile] | – | – | 7.00 to 8.00 | > 8.00 | 7.00 to 8.00 | 6.00 to 7.00
C[C@H](c1cccnc1N)N(CCF)c1nc(OC[C@@]23CCCN2C[C@H](F)C3)nc(N2CC3(C2)SCc2sc(N)c(C#N)c23)n1 [Compound 180, 2′-amino-1-(4-(((R)-1-(2-aminopyridin-3-yl)ethyl)(2-fluoroethyl)amino)-6-(((2R,7aS)-2-fluorotetrahydro-1H-pyrrolizin-7a(5H)-yl)methoxy)-1,3,5-triazin-2-yl)-6′H-spiro[azetidine-3,4′-thieno[3,4-b]thiophene]-3′-carbonitrile] | > 8.00 | > 8.00 | > 8.00 | > 8.00 | – | –
N#Cc1c(N)sc2c1C1(CC2)CN(c2nc(OC[C@@]34CCCN3C[C@H](F)C4)nc(N(CCO)Cc3cc(F)cnc3N)n2)C1 [Compound 133, 2-amino-1′-[4-[(2-amino-5-fluoro-3-pyridyl)methyl-(2-hydroxyethyl)amino]-6-[[(2R,8S)-2-fluoro-1,2,3,5,6,7-hexahydropyrrolizin-8-yl]methoxy]-1,3,5-triazin-2-yl]spiro[5,6-dihydrocyclopenta[b]thiophene-4,3′-azetidine]-3-carbonitrile] | 7.00 to 8.00 | 6.00 to 7.00 | > 8.00 | > 8.00 | – | –
N#Cc1c(N)sc2c1C1(CC2)CN(c2nc(OC[C@@]34CCCN3C[C@H](F)C4)nc(N3CCCC(O)(CO)C3)n2)C1 (stereo partly drawn) [Compound 85, 2-amino-1′-[4-[3-hydroxy-3-(hydroxymethyl)-1-piperidyl]-6-[[(2R,8S)-2-fluoro-1,2,3,5,6,7-hexahydropyrrolizin-8-yl]methoxy]-1,3,5-triazin-2-yl]spiro[5,6-dihydrocyclopenta[b]thiophene-4,3′-azetidine]-3-carbonitrile] | 4.70 to 6.00 | 4.70 to 6.00 | 6.00 to 7.00 | 7.00 to 8.00 | – | –
C[C@H](c1cccnc1N)N(C)c1nc(OC[C@@]23CCCN2C[C@H](F)C3)nc(N2CC(C)(c3csc(N)c3C#N)C2)n1 [Compound 172, 2-amino-4-[1-[4-[[(1R)-1-(2-amino-3-pyridyl)ethyl]-methyl-amino]-6-[[(2R,8S)-2-fluoro-1,2,3,5,6,7-hexahydropyrrolizin-8-yl]methoxy]-1,3,5-triazin-2-yl]-3-methyl-azetidin-3-yl]thiophene-3-carbonitrile] | 7.00 to 8.00 | 6.00 to 7.00 | > 8.00 | > 8.00 | – | –
N#CCC12CC1CCN(c1nc(OC[C@@]34CCCN3C[C@H](F)C4)nc(N3CC4(CCc5sc(N)c(C#N)c54)C3)n1)C2 (stereo partly drawn) [Compound 43, 2-amino-1′-[4-[1-(cyanomethyl)-3-azabicyclo[4.1.0]heptan-3-yl]-6-[[(2R,8S)-2-fluoro-1,2,3,5,6,7-hexahydropyrrolizin-8-yl]methoxy]-1,3,5-triazin-2-yl]spiro[5,6-dihydrocyclopenta[b]thiophene-4,3′-azetidine]-3-carbonitrile] | 4.70 to 6.00 | 4.70 to 6.00 | 7.00 to 8.00 | 7.00 to 8.00 | – | –
C[C@@]1(O)CCCN(c2nc(OCC3(CN4CCOCC4)CC3)nc(N3CC4(C3)c3c(sc(N)c3C#N)C[C@@H]4F)n2)C1 [Compound 68, (5S)-2-amino-5-fluoro-1′-[4-[(3R)-3-hydroxy-3-methyl-1-piperidyl]-6-[[1-(morpholinomethyl)cyclopropyl]methoxy]-1,3,5-triazin-2-yl]spiro[5,6-dihydrocyclopenta[b]thiophene-4,3′-azetidine]-3-carbonitrile] | 6.00 to 7.00 | 6.00 to 7.00 | > 8.00 | 7.00 to 8.00 | – | –
CC1(O)CC(F)CN(c2nc(OC[C@@]34CCCN3C[C@H](F)C4)nc(N3CC4(CCc5sc(N)c(C#N)c54)C3)n2)C1 (stereo partly drawn) [Compound 82, 2′-amino-1-(4-(5-fluoro-3-hydroxy-3-methylpiperidin-1-yl)-6-(((2R,7aS)-2-fluorotetrahydro-1H-pyrrolizin-7a(5H)-yl)methoxy)-1,3,5-triazin-2-yl)-5′,6′-dihydrospiro[azetidine-3,4′-cyclopenta[b]thiophene]-3′-carbonitrile] | 6.00 to 7.00 | 7.00 to 8.00 | > 8.00 | > 8.00 | – | –
CC(c1nsnc1N)N(C)c1nc(OC[C@@]23CCCN2C[C@H](F)C3)nc(N2CC3(C2)SCc2sc(N)c(C#N)c23)n1 (single isomer, unassigned) [Compound 184A, 2-amino-1′-[4-[[(1*)-1-(4-amino-1,2,5-thiadiazol-3-yl)ethyl]-methyl-amino]-6-[[(2R,8S)-2-fluoro-1,2,3,5,6,7-hexahydropyrrolizin-8-yl]methoxy]-1,3,5-triazin-2-yl]spiro[6H-thieno[2,3-c]thiophene-4,3′-azetidine]-3-carbonitrile] | > 8.00 | 7.00 to 8.00 | > 8.00 | > 8.00 | – | –
CC1(O)CC(F)CN(c2nc(OCC3(CN4CCOCC4)CC3)nc(N3CC4(CCc5sc(N)c(C#N)c54)C3)n2)C1 (stereo not drawn) [Compound 93, 2′-amino-1-(4-(5-fluoro-3-hydroxy-3-methylpiperidin-1-yl)-6-((1-(morpholinomethyl)cyclopropyl)methoxy)-1,3,5-triazin-2-yl)-5′,6′-dihydrospiro[azetidine-3,4′-cyclopenta[b]thiophene]-3′-carbonitrile] | 7.00 to 8.00 | 7.00 to 8.00 | > 8.00 | > 8.00 | – | –
